Earlier results, collected in patent US12276869B1, “WS12-releasing contact lens” (CooperVision International Limited, priority 2022, dated 2025).

Settings: incorporated into silicone hydrogel contact lenses

COc1ccc(NC(=O)C2CC(C)CCC2C(C)C)cc1 (stereo not shown) [WS12, N-(4-Methoxyphenyl)-5-methyl-2-(1-methylethyl)cyclohexanecarboxamide]
stability to autoclave sterilization in silicone hydrogel contact lenses: withstand autoclave sterilization without degradation or leaching into the packaging solution
